The subject of data set [1] is Escherichia coli (E. coli, IFO 3301). Description: Minimum bactericidal concentration (disinfecting effect), 1 minute contact. The data set is classed as cell-based. Particulars: contact 1 minute, culture 37° C. 20 hours. The procedure:
(§1) The disinfecting effect was evaluated in accordance with the following methods.
(§2) Seven microorganisms, i.e., Staphyrococcus aureus (S. aureus, ATCC 6538P), methicillin-resistant S. aureus (MRSA IID 1677), methicillin-resistant S. aureus (MRSA of a clinically isolated strain), Escherichia coli (E. coli, IFO 3301), Klebsiella pneumoniae (pneumoniae, IFO ATCC 4352), Pseudomonus aeruginosa (P. aeruginosa, IFO 3080) and Serratia marcescens (S. marcescens of a clinically isolated strain), were used for the test.
(§3) A test microorganism in an inoculating loop to streak a portion of 8 ml of a culture medium of soybean casein digest (SCD) on the surface and cultured at 37° C. for 18 hours. The obtained medium in an amount of 1 ml was diluted with the SCD culture medium to 1/10 of the original concentration. The diluted medium in an amount of 2 ml was brought into contact with 100 ml of the SCD culture medium. The obtained medium was cultured at 37° C. for 2 hours except that the medium containing P. aeruginosa was cultured for 4 hours and a liquid of a test microorganism was prepared. The liquid of a test microorganism contained 10^6 to 10^8 live microorganisms per 1 ml of the liquid.
(§4) A series of solutions containing a composition of a sterilizing disinfectant were prepared by dilution with a physiological saline in a manner such that each solution was diluted to one half the concentration to prepare a solution having the next lower concentration. The solutions of a series each in an amount of 10 ml were separately placed into test tubes, treated for disinfection in an autoclave and mixed with a liquid of a test microorganism in an amount of 0.1 ml. After the sterilizing disinfectant and the test microorganism were kept in contact with each other for 1 minute, the obtained liquid for inoculation in an amount of 0.1 ml was added to each of three SCD-LP (lecithin polysolvate) culture media (9 ml, each) which had been disinfected in advance. After the inoculated media were cultured at 37° C. for 20 hours, the presence or the absence of turbidity in the media was examined. When the medium was transparent, it was decided that no growth of the microorganism could be recognized and the result for this medium was expressed as −. When the medium was turbid, it was decided that growth of the microorganism could be recognized and the result for this medium was expressed as+. […] The minimum concentration of the composition of a sterilizing disinfectant which gave the result of − was used as the minimum bactericidal concentration (MBC).

For data set [2], the system named is Klebsiella pneumoniae (pneumoniae, IFO ATCC 4352). Described as above. The following applies: K. pneumoniae; contact 1 minute; culture 37° C. 20 hours. In kind it is cell-based. As to the method:
as §1, §2, §3, §4

Data set [3] has as its system Pseudomonus aeruginosa (P. aeruginosa, IFO 3080). The description is as above. The data set is classed as cell-based. Particulars: contact 1 minute, culture 37° C. 20 hours. The procedure: as §1, §2, §3, §4
The test system of data set [4] is Serratia marcescens (S. marcescens of a clinically isolated strain). The description is as above. The data set is classed as cell-based. The following applies: contact 1 minute, culture 37° C. 20 hours. As to the method: as §1, §2, §3, §4
In data set [5] the test system is Staphyrococcus aureus (S. aureus, ATCC 6538P). The data set is described as above. The data set is classed as cell-based. Particulars: contact 1 minute, culture 37° C. 20 hours. The procedure:
as §1, §2, §3, §4

The test system of data set [6] is methicillin-resistant S. aureus (MRSA IID 1677). The description is as above. The data set is classed as cell-based. Particulars: contact 1 minute, culture 37° C. 20 hours. As to the method:
as §1, §2, §3, §4

Data set [7] deals with methicillin-resistant S. aureus (MRSA of a clinically isolated strain). The data set is described as above. Particulars: contact 1 minute, culture 37° C. 20 hours. In kind it is cell-based. As to the method:
as §1, §2, §3, §4

A short description of data set [8]: Test of skin stimulation (sealed filter paper on inner side of left upper arm). Details: key to primary stimulation (skin stimulation): −: negative (no reaction); ±: rubedo alone; +: rubedo and humectation or papula; ++: rubedo, edema and marked papula or small blisters. In kind it is in vivo, human. Particulars: for primary stimulation (skin stimulation): 0.02 ml, one per person. The procedure: The test of skin stimulation was conducted in accordance with the following method.
A sterilizing disinfectant in an amount of 0.02 ml was placed on a filter paper and attached to a portion at the inner side of the left upper arm of a person in a manner such that the paper was sealed. The test was conducted with five male persons (A to E) and five female persons (F to J). The primary stimulation was evaluated 30 minutes and 24 hours after the attachment of the paper and the result was classified into four levels. The criterion for the classification was as follows:
Criterion for the Classification
−: negative (no reaction)
+: rubedo and humectation or papula
++: rubedo, edema and marked papula or small blisters

As for “benzalkonium chloride [Comparative Example 4]”, the Minimum batericidal concentration in data set [1] is 64 ppm; in data set [2] it was 64 ppm; in data set [3] it was 250 ppm; in data set [4], 64 ppm; in data set [5], 32 ppm; in data set [6] it was 32 ppm. This substance returned a Minimum batericidal concentration in data set [7] of 64 ppm.
In the case of “benzalkonium chloride [Comparative Example 5]”, the “primary stimulation (skin stimulation)” value was “− and ±” in data set [8] (30 minutes after attachment); “+ and ++” in data set [8] (24 hours after attachment). Besides, the skin disorder result in data set [8] (summary in words of the test of skin stimulation) is listed as “marked skin disorder”.

The values are drawn from patent US20040062744A1, “Bactericidal disinfectant, antibacterial drug, and antibacterial material” (NICCA CHEMICAL CO., LTD., priority 2003, published 2004).
